Reference: patent US8268961B2, “Antibacterial peptides and analogues thereof” (Universita Degli Studi di Siena, priority 2004, dated 2012)
Read-outs that look alike come from different tables or passages of the source. Positions of bridges follow the written chain, without caps; N, C: chain ends. Residues, ends and D or L forms follow the SMILES beside them. Chains are numbered I, II in the order given. No end group written: not given here.

What was measured:
[1] = tested on: Escherichia coli ATCC 25922; format: cell-based
Source text: (§1) MIC is defined as the lowest concentration, in an antibiotic dilution range, that inhibits visible bacterial growth. The importance of MIC sensitivity test is based on the principle that in vitro sensitivity provides a predictive indication of the in vivo efficacy of the antibiotic therapy. Values are expressed as molar concentration and compared to MIC values obtained with commercially available antibiotics such as amikacin, ceftriaxone and levofloxacin (Table 3).
(§2) Reference strains (Escherichia coli ATCC 25922, Pseudomonas aeruginosa ATCC 27853, Staphylococus aureus ATCC 25923 and Chryseobacterium meningosepticum CCUG 4310) and several recent clinical isolates (including multidrug-resistant ones) of various species (Table 2) were used for conventional susceptibility testing experiments. Minimum Inhibitory Concentration (MIC) was determined by a standard microdilution assay as recommended by the National Commitee for Clinical Laboratory Standards (NCCLS) using cation-supplemented Mueller-Hinton (MH) broth (Oxoid Ltd. Basingstoke, UK) and a bacterial inoculum of 5×10^4 CFU per well, in a final volume of 100 μl. Results were recorded by visual inspection after 24 h of incubation at 37° C.

[2] = tested on: Pseudomonas aeruginosa ATCC27853; format: cell-based
Source text: as §1, §2

[3] = tested on: Staphylococcus aureus ATCC 25923; format: cell-based; conditions: Staphylococcus aureus ATCC 25923, reference strain
Source text: as §1, §2

[4] = tested on: E. coli plasmid vector pCEP4 DNA; assay: DNA binding assay (gel retardation); conditions: 200 ng pCEP4, 1% agarose gel, 1 h room temperature
Description: In an attempt to clarify the molecular mechanism of action, the authors examined the binding properties on DNA exerted by M6 dendrimeric peptide and magainin 2, an antimicrobial peptide which has a pore-forming activity on the cell membrane. The DNA binding abilities of M6 and magainin 2 were examined by analyzing the electrophoretic mobility of DNA bands at the various weight ratios of peptides to DNA on a 1% (w/v) agarose gel.
Gel-retardation experiments were performed by mixing 200 ng of the E. coli plasmid vector pCEP4 (Invitrogen) with increasing amounts of M6 peptide in 20 μl of binding buffer (5% glycerol, 10 mM Tris-HCl (pH 8.0), 1 mM EDTA, 1 mM DTT, 20 mM KCl and 50 μg/ml BSA). The reaction mixtures were incubated at room temperature for 1 h. Subsequently, 4 μl of native loading buffer was added (40% saccarose, 0.25% bromophenol blue) and an aliquot of 12 μl was applied to a 1% agarose gel electrophoresis in 1 mM Tris borate-EDTA buffer.

E. coli strain TG1 = assay: Test of antibacterial activity (colony growth inhibition) on E. coli strain TG1; format: cell-based; conditions: E. coli TG1, colony counting vs control without peptide
Description: The antimicrobic activity of the peptides in linear form (L1, L4, L5, L6) and in MAP form (M1, M4, M5, M6) was assayed on the TG1 strain of E. coli. The peptides were incubated at various concentrations (2-1-0.5-0.25-0.12 mg/ml) with cells of E. coli (OD600=0.2) for about 1 hour at 37° C. Subsequently, the cells were plated on agar at dilution such to allow counting of individual colonies. The antimicrobic activity of the synthesised peptide L 1 and M1 is shown FIG. 1 and is compared to a non correlated MAP peptide (MNC) used as negative control.
In one example, the tetrabranched MAP peptides with the amino acid sequence: QAKIRVRLSA [SEQ ID NO: 2], KIRVRLSA [SEQ ID NO: 3], QKKIRVRLSA [SEQ ID NO: 4] are used individually in a bacterial colony growth inhibition test. The test is conducted by incubating different concentrations of MAP peptides with E. coli (strain TG1) and plating bacterial cells on agar at a dilution such to allow for individual colonies counting. The following day, the number of colonies grown after treatment with the three MAP peptides is compared.
Antimicrobic tests were conducted incubating for 75 min at 37° C., 25 μL of E. coli at the OD600 of 0.2 with 25 μl of MAP peptide dissolved in PBS at the various concentrations. The different incubations were further diluted 1:1000 in 2×TY medium and 100 μl were plated on solid 2×TY medium. The plates were left overnight at 30° C. and the individual grown colonies were counted and compared with a control, not treated with MAP peptide.

[5] = Stability to plasmatic protease (HPLC); format: in vitro ADME, human
Description: Since the use of peptides as therapeutic agents is severely limited by their in vivo half-life, the stability to human serum protease of the linear peptide L1 and of the MAP peptides M1, M4, M5 and M6 was evaluated. The peptides were incubated at the concentration of 10 mM with plasma and with human serum for 2 and 24 hours; the samples were subsequently analysed in HPLC on column C18 (see materials and methods) to evaluate the presence of linear and MAP peptide not digested by the protease.
The various peptides in MAP form and the linear peptide (L1) were dissolved in H2O at the concentration of 10 mM and incubated with 10 μl of plasma and human serum for 2 and 24 hours at 37° C. To each sample were added 150 μl of methanol to block the proteolytic reaction; each sample was then centrifuged at 13,000 rpm for 2 min and to the supernatant were added 0.75 ml of 0.1% trifluoroacetic acid. The samples were analysed in reverse phase HPLC on a Vydac C18 semi-preparative column using a 30 min gradient of buffer B from 20% to 95% (buffer A: 0.1% trifluoroacetic acid/water; buffer B: 0.1% trifluoroacetic acid/methanol), to evaluate the presence of linear and MAP peptide after the proteolytic treatment.

[6] = Escherichia coli ATCC 25922, reference strain
[7] = Pseudomonas aeruginosa ATCC27853, reference strain

Compound | MIC (Molarity) ([1]; ATCC 25922) | MIC (Molarity) ([2]; ATCC27853) | MIC (Molarity) [3] | MIC (Molarity) [1, 6] | MIC (Molarity) [2, 7] | further results
I: QKKIRVALSAKKA-OH / II: QKKIRVALSAK / III: QKKIRVALSA / IV: QKKIRVALSA (amide I:11-IV:C, I:12-II:C, II:11-III:C) [M37] | 3 µM | 3 µM | >12 µM |  |  | 
I: QKAIRVRLSAKKA-OH / II: QKAIRVRLSAK / III: QKAIRVRLSA / IV: QKAIRVRLSA (amide I:11-IV:C, I:12-II:C, II:11-III:C) [M33, QKAIRVRLSA] |  |  | >12 µM | 1.5 µM | 1.5 µM | 
I: QRRIRVRLSAKKA-OH / II: QRRIRVRLSAK / III: QRRIRVRLSA / IV: QRRIRVRLSA (amide I:11-IV:C, I:12-II:C, II:11-III:C) [M30, QRRIRVRLSA] | 3 µM | 12 µM | >12 µM |  |  | 
magainin 2 [reference compound] |  |  |  |  |  | Weight ratio of peptide to DNA at which migration of DNA is inhibited [4]: 5
CO/N=C(\C(=O)N[C@@H]1C(=O)N2C(C(=O)O)=C(CSc3nc(=O)c(=O)[nH]n3C)CS[C@H]12)c1csc(N)n1 [CEFTRIAXONE, ceftriaxone, reference compound] |  |  | 0.054 to 0.21 µM | 14 to 110 µM | 1.7 to 14 µM | 
QKKIRVRASA [M38] |  |  | >12 µM | >12 µM | >12 µM | 
C[C@H]1COc2c(N3CCN(C)CC3)c(F)cc3c(=O)c(C(=O)O)cn1c23 [LEVOFLOXACIN, levofloxacin, reference compound] |  |  | 0.022 to 16 µM | 1.3 to 11 µM | 0.16 to 1.3 µM | 
I: QRKIRVRLSAKKA-OH / II: QRKIRVRLSAK / III: QRKIRVRLSA / IV: QRKIRVRLSA (amide I:11-IV:C, I:12-II:C, II:11-III:C) [M28] |  |  | >12 µM | 0.38 µM | 0.76 µM | 
NCC[C@H](O)C(=O)N[C@@H]1C[C@H](N)[C@@H](O[C@H]2O[C@H](CN)[C@@H](O)[C@H](O)[C@H]2O)[C@H](O)[C@H]1O[C@H]1O[C@H](CO)[C@@H](O)[C@H](N)[C@H]1O [AMIKACIN, amikacin, reference compound] |  |  | 0.85 to 6.8 µM | 1.7 to 6.8 µM | 1.7 to 6.8 µM | 
I: QKKARVRLSAKKA-OH / II: QKKARVRLSAK / III: QKKARVRLSA / IV: QKKARVRLSA (amide I:11-IV:C, I:12-II:C, II:11-III:C) [M34, QKKARVRLSA] |  | 12 µM | >12 µM | >12 µM |  | 
I: QKKIAVRLSAKKA-OH / II: QKKIAVRLSAK / III: QKKIAVRLSA / IV: QKKIAVRLSA (amide I:11-IV:C, I:12-II:C, II:11-III:C) [M35, QKKIAVRLSA] | 6 µM | 1.5 µM | >12 µM |  |  | 
I: QKKIRVRLAAKKA-OH / II: QKKIRVRLAAK / III: QKKIRVRLAA / IV: QKKIRVRLAA (amide I:11-IV:C, I:12-II:C, II:11-III:C) [M39, QKKIRVRLAA] | 3 µM | 3 µM | >12 µM |  |  | 
CC[C@H](C)[C@H](NC(=O)[C@H](CCCCN)NC(=O)[C@H](CCC(=O)O)NC(=O)[C@@H](N)CCC(N)=O)C(=O)N[C@@H](CCCNC(=N)N)C(=O)N[C@H](C(=O)N[C@@H](CCCNC(=N)N)C(=O)N[C@@H](CC(C)C)C(=O)N[C@@H](CO)C(=O)N[C@@H](C)C(N)=O)C(C)C [L1, QEKIRVRLSA] (H-QEKIRVRLSA-NH2; N-terminus assumed) |  |  |  |  |  | Antibacterial activity on E. coli TG1 colony growth (E. coli strain TG1): inhibited significantly; Resistance to plasmatic protease: Plasma 2 h [5]: +; Resistance to plasmatic protease: Plasma 24 h [5]: −
I: AKKIRVRLSAKKA-OH / II: AKKIRVRLSAK / III: AKKIRVRLSA / IV: AKKIRVRLSA (amide I:11-IV:C, I:12-II:C, II:11-III:C) [M31] | 3 µM | 3 µM | >12 µM |  |  | 
I: QKRIRVRLSAKKA-OH / II: QKRIRVRLSAK / III: QKRIRVRLSA / IV: QKRIRVRLSA (amide I:11-IV:C, I:12-II:C, II:11-III:C) [M29, QKRIRVRLSA] | 6 µM | 6 µM | >12 µM |  |  | 
QKKIRARLSA [M36] |  |  | >12 µM | >12 µM | >12 µM | 
